These results are taken from ChEMBL document CHEMBL4177607, “Antibacterial constituents of the plant family Amaryllidaceae” (2017).

Assay type in all cases: functional
Assay [1] relates to Staphylococcus aureus. The experiment in a line: Antibacterial activity against Staphylococcus aureus assessed as diameter of inhibition zone at 20 mg/ml. The note with it: read-out: DIZ.
The test system of assay [2] is Escherichia coli. Description: Antibacterial activity against Escherichia coli assessed as diameter of inhibition zone at 20 mg/ml. As to conditions: read-out: DIZ.
The test system of assay [3] is Flavobacterium columnare. Description: Antibacterial activity against Flavobacterium columnare ALM-00-173 after 24 hrs. As to conditions: ALM-00-173, 24 h.
The test system of another assay is Edwardsiella ictaluri. The experiment in a line: Antibacterial activity against Edwardsiella ictaluri after 24 hrs.
The test system of assay [4] is Flavobacterium columnare. The experiment in a line: Antibacterial activity against Flavobacterium columnare BioMed after 24 hrs.
The test system of assay [5] is Staphylococcus aureus. Description: Antibacterial activity against Staphylococcus aureus.
Assay [6] has as its system Agrobacterium tumefaciens. The experiment in a line: Antibacterial activity against Agrobacterium tumefaciens assessed as inhibition of crown gall tumor initiation at 1 mg/ml.
Another assay deals with Pseudomonas aeruginosa. The experiment in a line: Antibacterial activity against Pseudomonas aeruginosa after 24 hrs by broth microdilution method.
For a further assay, the system named is Shigella flexneri. Description: Antibacterial activity against Shigella flexneri after 24 hrs by broth microdilution method. For orientation: Broth dilution looks for growth in wells or tubes with falling amounts of substance.
Assay [7] deals with Escherichia coli. The experiment in a line: Antibacterial activity against Escherichia coli after 24 hrs by broth microdilution method.
Assay [8] concerns Staphylococcus aureus. The experiment in a line: Antibacterial activity against Staphylococcus aureus assessed as diameter of inhibition zone at 3 mg/ml. As to conditions: read-out: DIZ.
A further assay has as its system Neisseria gonorrhoeae. Description: Antibacterial activity against Neisseria gonorrhoeae.
For assay [9], the system named is Staphylococcus aureus. The experiment in a line: Antibacterial activity against Staphylococcus aureus assessed as diameter of inhibition zone at 1 mg/ml. As to conditions: read-out: DIZ.
Assay [10] concerns Escherichia coli. The experiment in a line: Antibacterial activity against Escherichia coli assessed as diameter of inhibition zone at 1 mg/ml. As to conditions: read-out: DIZ.
Assay [11] concerns Staphylococcus aureus. Description: Antibacterial activity against Staphylococcus aureus after 24 hrs.
Assay [12] has as its system Escherichia coli. The experiment in a line: Antibacterial activity against Escherichia coli by agar dilution method.
Assay [13] deals with Staphylococcus aureus. The experiment in a line: Antibacterial activity against Staphylococcus aureus by agar dilution method. For orientation: Agar dilution tests growth on a series of plates holding different concentrations.
The subject of another assay is Rhodococcus fascians. Description: Antibacterial activity against Corynebacterium fascians assessed as diameter of inhibition zone at 10 mM after 48 to 72 hrs by paper disc method. As to conditions: Rhodococcoides fascians; read-out: DIZ.

Usually MIC stands for the lowest concentration found to suppress growth. A higher MIC goes with a less susceptible organism. The term inhibition denotes the percentage by which the read-out fell short of the control.

In brackets after ≈: the same amount, converted by molar mass.

As for `O=c1c2cc3c(cc2c2cccc4ccn1c42)OCO3`, the zone of inhibition at 20000 µg/mL in the assay on Staphylococcus aureus [1] and in the assay with Escherichia coli [2] was 7 mm in each case.
In the case of `Cl.O[C@H]1[C@H]2c3cc4c(cc3CN3CCC(=C[C@@H]1O)[C@H]23)OCO4`, the MIC in the assay with Flavobacterium columnare [3] is 3 mg/L; against Edwardsiella ictaluri, > 32 mg/L; against Flavobacterium columnare [4] it was 32 mg/L; in the assay on Staphylococcus aureus [5] it was > 32 mg/L.
In the case of `CC(=O)O[C@H]1[C@H]2c3cc4c(cc3CN3CCC(=C[C@@H]1O)[C@H]23)OCO4`, the MIC in the assay on Edwardsiella ictaluri and against Staphylococcus aureus [5] was > 33 mg/L throughout.
Regarding `O=C1N[C@@H]2C(=C[C@H](O)[C@@H](O)[C@H]2O[C@@H]2O[C@H](CO)[C@@H](O)[C@H](O)[C@H]2O)c2cc3c(c(O)c21)OCO3`, in assay [6], the inhibition at 1000 µg/mL came to 53%.
As to `CCCC(=O)Oc1ccc([C@@H]2CC(=O)c3c(O)c(C)c(O)c(C)c3O2)cc1`, the MIC with Pseudomonas aeruginosa is 8 mg/L (≈ 21.6 µM); against Shigella flexneri it was 2 mg/L (≈ 5.4 µM); against Escherichia coli [7] it was 4 mg/L (≈ 10.8 µM).
Take `CCCCCCCC(=O)Oc1ccc([C@@H]2CC(=O)c3c(O)c(C)c(O)c(C)c3O2)cc1`: the minimal inhibitory concentration (MIC) in the assay with Pseudomonas aeruginosa is 16 mg/L (≈ 37.5 µM); with Shigella flexneri it was 64 mg/L (≈ 150 µM); in the assay on Escherichia coli [7], 32 mg/L (≈ 75 µM).
As for `CCCCCCCC(=O)Oc1c(C)c(O)c2c(c1C)O[C@H](c1ccc(O)cc1)CC2=O`, the minimum inhibitory concentration (MIC) was 32 mg/L (≈ 75 µM) against Pseudomonas aeruginosa, 16 mg/L (≈ 37.5 µM) against Shigella flexneri and 16 mg/L (≈ 37.5 µM) in the assay with Escherichia coli [7].
On to `O[C@@H]1C=C[C@]23c4cc5c(cc4C[N@@](C[C@@H]2O)[C@H]3C1)OCO5`, for which the zone of inhibition at 3000 µg/mL in the assay with Staphylococcus aureus [8] was 17 mm.
Consider `CC1(C)O[C@@H]2[C@H]3OS(=O)(=O)O[C@H]3[C@]3(O)c4cc5c(c(O)c4C(=O)N[C@H]3[C@@H]2O1)OCO5`, for which, in the assay on Neisseria gonorrhoeae, the MIC lay within 32 to 64 mg/L (≈ 72.2 to 144 µM).
On to `COc1cc2c(cc1OC)[C@@H](O)O[C@@H]1CC=C3CCN(C)[C@H]3[C@H]21`, for which the zone of inhibition at 1000 µg/mL was found to be 14 mm in the assay with Staphylococcus aureus [9] and 15 mm in the assay on Escherichia coli [10].
Consider `CCCCCCCCCCCC(=O)Oc1ccc([C@@H]2CC(=O)c3c(O)c(C)c(O)c(C)c3O2)cc1`, for which the values for the minimal inhibitory concentration (MIC) against Pseudomonas aeruginosa, with Shigella flexneri and in the assay on Escherichia coli [7] were 16 mg/L (≈ 33.2 µM), 8 mg/L (≈ 16.6 µM) and 8 mg/L (≈ 16.6 µM), respectively.
Turning to `Cc1ccc(C(=O)Oc2ccc([C@@H]3CC(=O)c4c(O)c(C)c(OC(=O)c5ccc(C)cc5)c(C)c4O3)cc2)cc1`, the figures for the MIC in the assay with Pseudomonas aeruginosa, with Shigella flexneri and against Escherichia coli [7] were 16 mg/L (≈ 29.8 µM), 8 mg/L (≈ 14.9 µM) and 8 mg/L (≈ 14.9 µM), respectively.
For the compound `COc1cc2c(cc1OC)[C@H]1[C@H]3C(=CC[C@H]1O[C@@H]2OC)CCN3C`, the zone of inhibition at 1000 µg/mL in the assay with Staphylococcus aureus [9] and in the assay on Escherichia coli [10] was 14 mm in each case.
`O=C(O[C@H]1[C@@H](O)[C@@H](O)[C@@H]2NC(=O)c3c(cc4c(c3O)OCO4)[C@@]2(O)[C@@H]1O)c1ccccc1` returned an MIC against Neisseria gonorrhoeae of 32 to 64 mg/L (≈ 71.8 to 144 µM).
Consider `COc1cc2c(cc1OC)[C@@H]1[C@@H](OC2=O)[C@@H](O)C[C@H]2CCN(C)[C@H]21.Cl`, for which, in the assay on Staphylococcus aureus [11], the minimum inhibitory concentration (MIC) is > 37 mg/L.
Regarding `CCCCCCCCCCCCCCCCC/C=C/CCC[C@@H](O)[C@@H](O)C(CO)N(C(=O)[C@H](O)CCCCCCCCCCCCCCC)C(O)CO` (stereo partly specified), the minimum inhibitory concentration (MIC) in the assay with Escherichia coli [12] amounted to 50 mg/L (≈ 66.1 µM); against Staphylococcus aureus [13], 30 mg/L (≈ 39.7 µM).
As to `CCCC(=O)Oc1ccc([C@@H]2CC(=O)c3c(O)c(C)c(OC(=O)CCC)c(C)c3O2)cc1`, the results for the MIC with Pseudomonas aeruginosa, in the assay with Shigella flexneri and in the assay on Escherichia coli [7] were 4 mg/L (≈ 9.08 µM), 2 mg/L (≈ 4.54 µM) and 2 mg/L (≈ 4.54 µM), respectively.
In turn, `CC(=O)Oc1c2c(cc3c1C(=O)N[C@@H]1C3=C[C@H](OC(C)=O)[C@@H](OC(C)=O)[C@H]1OC(C)=O)OCO2` gave an MIC in the assay on Neisseria gonorrhoeae of 32 to 64 mg/L (≈ 67.3 to 135 µM).
Turning to `Oc1ccc2c3c1c1cc4c(cc1c[n+]3CC2)OCO4`, in the assay with Rhodococcus fascians, the zone of inhibition at 10000 µM was 10 mm.
Take `CC(=O)O[C@H]1[C@H]2c3cc4c(cc3CN3CCC(=C[C@@H]1OC(C)=O)[C@H]23)OCO4`: the MIC is 4 mg/L against Flavobacterium columnare [3], > 37 mg/L against Edwardsiella ictaluri, 37 mg/L in the assay with Flavobacterium columnare [4] and > 37 mg/L against Staphylococcus aureus [5].
Consider `O=c1c2cc3c(cc2c2cccc4c2n1CC4)OCO3`, for which the results for the MIC against Flavobacterium columnare [3] and with Flavobacterium columnare [4] were 10 µM and 100 µM, respectively. Also, in the assay with Rhodococcus fascians, the zone of inhibition at 10000 µM turned out to be 25 mm.
